Structures are written as SMILES.

This note sets out measurements from ChEMBL document CHEMBL3507680, “University of Dundee, Gates Library screen for HepG2 cell viability”.

The data set can be described thus: Human HepG2 cell viability assay in 384 well format. It counts as toxicity, cell-based. On the set-up: dose 125 nL, time 70.5 hour; concentration not given beside the values. Conditions: HepG2 cells, read-out: Inhibition.
As to `Cc1nc(CN(C)C2CCN(Cc3nc(C4CC4)no3)C2)no1` (stereo not drawn), the cytotoxicity at 70.5 h is -1.35%.
The figure for `CCCc1n[nH]c(C2CN(C(=O)CCn3nc(C)cc3C)CCO2)n1` (stereo not drawn) is 0.729%.
Turning to `CCCC(=O)NCC(=O)NC(c1ccc(Cl)cc1)C(F)(F)F` (stereo not drawn), the cytotoxicity at 70.5 h amounted to 8.36%.
For `C/C(=C/c1ccccc1)CNCc1cccc(C(N)=O)c1`, the cytotoxicity at 70.5 h is -10.9%.
As for `Cc1nc(CNC(=O)CCN2CCN(c3ccccn3)CC2)oc1C`, the cytotoxicity at 70.5 h came to 6.4%.
For `Cc1nc(CNC(=O)CCN2CCN(c3ccccc3)CC2)oc1C` the value was 2.07%; for `CS(=O)(=O)CCNC(=O)N(Cc1ccoc1)C1CCCCC1`, -7.65%.
For the compound `COc1ccc(OCC(=O)NS(=O)(=O)c2ccc(Cl)s2)cc1`, the cytotoxicity at 70.5 h is -8.59%.
For `O=C(NCC1(c2cccc(F)c2)CC1)N1CCC2(CCOC2)C1` (stereo not drawn), the cytotoxicity at 70.5 h was -7.28%.
For the compound `Cc1nc(CNc2ccc(C(=O)NCc3ccco3)cc2C)no1`, the cytotoxicity at 70.5 h is -11.5%.
Take `N#CCc1ccc(OCC(=O)NS(=O)(=O)c2ccc(Cl)s2)cc1`: the cytotoxicity at 70.5 h is -7.69%.
For `Cc1ncc(CNc2ccc(C(=O)NCc3ccco3)cc2C)s1` the value was 1.95%; for `O=C(Nc1ccc2c(c1)OC1(CCCC1)O2)c1ccc(=O)[nH]n1`, -6.98%; for `O=C(NCCN1CCOCC1)N(Cc1ccoc1)C1CCCCC1`, 1.39%.
For `CCNC(=O)N(Cc1ccoc1)C1CCCCC1`, the cytotoxicity at 70.5 h is -5.6%.
Take `O=C(NCCCNc1ccccn1)NCC1CCS(=O)(=O)C1` (stereo not drawn): the cytotoxicity at 70.5 h was -8.26%.
Turning to `CCN(CCNCc1ccc(C#N)cc1)C1CC1`, the cytotoxicity at 70.5 h is -6.58%.
As to `CC(=O)N(Cc1ccoc1)C1CCCCC1`, the cytotoxicity at 70.5 h is -5.21%.
For the compound `CN(CCN1CCCC1=O)CC(c1cccs1)N1CCOCC1` (stereo not drawn), the cytotoxicity at 70.5 h was -11.7%.
With `CC(CO)(NCc1noc(Cc2ccccc2)n1)C1CCCCC1` (stereo not drawn), the cytotoxicity at 70.5 h was -0.885%.
Regarding `COCCOc1ccc(CNc2nc3ccccc3o2)cn1`, the cytotoxicity at 70.5 h was -10.8%.
Regarding `Cc1ccc(-c2nc(CSCCC(=O)NC(N)=O)co2)c(C)c1`, the cytotoxicity at 70.5 h was 22%.
Regarding `Cc1ccc(S(=O)(=O)NC(=O)C2(c3ccc(F)cc3)CCC2)c(C)c1`, the cytotoxicity at 70.5 h was determined as 26.9%.
For the compound `CS(=O)(=O)CCC(=O)N(CCc1cccc(F)c1)C1CC1`, the cytotoxicity at 70.5 h was -11.4%.
Take `Cn1c2ncccc2c(=O)n1CC(=O)NCCC1=CCCCC1`: the cytotoxicity at 70.5 h was -2.08%.
Consider `O=C(NC1CCCN(c2ccccc2Cl)C1)c1c[nH]nn1` (stereo not drawn), for which the cytotoxicity at 70.5 h is -10.1%.
Take `O=C(NC1CCCN(c2ccccc2Cl)C1)c1nc(=O)[nH][nH]1` (stereo not drawn): the cytotoxicity at 70.5 h was 25.3%.
As for `CSc1ccc(OCCN2CCC(n3cncn3)CC2)cc1`, the cytotoxicity at 70.5 h was -13.7%.
Regarding `N#Cc1ccsc1N1CCC(Sc2ncc[nH]2)C1=O` (stereo not drawn), the cytotoxicity at 70.5 h is -7.58%.
The figure for `COc1cc2c(c(OC)c1OC)CCN(CCN1CCCCC1)CC2` is -10.5%; for `Cc1cc(=O)[nH]cc1C(=O)N1CCN(C)c2ccccc2C1` it is -0.391%.
Turning to `CC(C)(CO)CCCNC(=O)NC1(c2ccccc2F)CC1`, the cytotoxicity at 70.5 h is 3.5%.
For `CC(=O)N(Cc1ccc(NCc2cnn(C(C)(C)C)c2)cc1)C(C)C` the value was -3.55%; for `Cc1cc(C(=O)N2CCN(c3ccncc3Cl)CC2)n(C)n1`, -1.44%.
`COc1cccc(OCC(=O)N(C)c2cccnc2)c1`: the cytotoxicity at 70.5 h was found to be 24%.
For the compound `Cc1cccc(C2CCCN2Cc2nc(N)nc(N(C)C)n2)c1C` (stereo not drawn), the cytotoxicity at 70.5 h is -9.17%.
In the case of `CSCC1CCN(C(=O)c2ccccc2NCc2cccnc2)C1` (stereo not drawn), the cytotoxicity at 70.5 h is -8.12%.
For `Cc1noc(C(C)N2CCc3[nH]c4ccc(Cl)cc4c3C2)n1` (stereo not drawn), the cytotoxicity at 70.5 h was -8.97%.
As to `CS(=O)(=O)CCN(CCc1cccc(F)c1)C1CC1`, the cytotoxicity at 70.5 h is -0.807%.
`COc1cc2c(c(OC)c1OC)CCN(CCn1cncn1)CC2`: the cytotoxicity at 70.5 h was -8.44%.
As for `COc1cc2c(c(OC)c1OC)CCN(CCn1nc(C)cc1C)CC2`, the cytotoxicity at 70.5 h is -6.93%.
For `COCCc1noc(CNC(C)(CO)C2CCCCC2)n1` (stereo not drawn), the cytotoxicity at 70.5 h was -0.882%.
For the compound `CC(C)OC(=O)NCc1ccc(NCc2cnn(C(C)(C)C)c2)cc1`, the cytotoxicity at 70.5 h was -13.1%.
`CN(C)C(=O)c1cccn1-c1ccc2c(c1)OCCO2`: the cytotoxicity at 70.5 h was -2.2%.
Regarding `O=C(C(c1ccccc1)N1CCc2cncnc2C1)N1CCCCC1` (stereo not drawn), the cytotoxicity at 70.5 h was 7.48%.
Consider `Fc1ccc(-c2cnc(CNC3CCc4ncnn4C3)o2)cc1` (stereo not drawn), for which the cytotoxicity at 70.5 h was -8.23%.
`CC(Nc1ccn(Cc2ccccn2)n1)C(=O)NC(C)(C)C` (stereo not drawn): the cytotoxicity at 70.5 h was -7.21%.
In the case of `Fc1ccc(-c2ccc(CNC3CCc4ncnn4C3)o2)cc1` (stereo not drawn), the cytotoxicity at 70.5 h was -9.49%.
For `Cn1cnc2c1CCN(C(C(=O)N1CCCCC1)c1ccccc1)C2` (stereo not drawn), the cytotoxicity at 70.5 h is -6.79%.
As for `CCc1nnsc1C(=O)N1CCN(CC(O)CC)CC1` (stereo not drawn), the cytotoxicity at 70.5 h is -10.3%.
For `Cn1nnc2c1CCN(C(C(=O)N1CCCCC1)c1ccccc1)C2` (stereo not drawn) the value was -7.33%.
Turning to `CC(C)Oc1ccc(C(O)CNCc2ccccc2C(F)(F)F)cc1` (stereo not drawn), the cytotoxicity at 70.5 h is -6.08%.
For `CCCS(=O)(=O)CC(=O)N1CCN(CC2CC2)c2ccccc21` the value was -7.98%; for `CS(=O)(=O)CCCC(=O)N1CCN(CC2CC2)c2ccccc21`, -7.11%; for `CC(C)N(C)CC(=O)NCC(O)c1cc2ccccc2s1` (stereo not drawn), -7.72%.
`CN(C)S(=O)(=O)NCC(O)c1cc2ccccc2s1` (stereo not drawn): the cytotoxicity at 70.5 h was 3.05%.
Turning to `CNC(=O)C1CCCN(C(=O)OC)C1` (stereo not drawn), the cytotoxicity at 70.5 h is -5.12%.
Consider `OCC(CO)Nc1ccc2c(Cl)ccc(Cl)c2n1`, for which the cytotoxicity at 70.5 h is -1%.
In the case of `COCCC(=O)N1CCN(CC2CC2)c2ccccc21`, the cytotoxicity at 70.5 h is -3.57%.
In the case of `O=C(CNC1CCc2ncnn2C1)N(C1=CCCCC1)C1CC1` (stereo not drawn), the cytotoxicity at 70.5 h was -2.56%.
Turning to `COc1ccc(N(Cc2ccco2)C(=O)C2CCCO2)cc1F` (stereo not drawn), the cytotoxicity at 70.5 h is -2.54%.
`CCCN(C(=O)CNC1CCc2ncnn2C1)C1=CCCCC1` (stereo not drawn): the cytotoxicity at 70.5 h is -10.9%.
Regarding `CC(C)c1cc(C(=O)NCC(O)C2CCOCC2)nn1C(C)(C)C` (stereo not drawn), the cytotoxicity at 70.5 h came out at 1.71%.
For the compound `COc1cccc(F)c1C(C)NC(=O)NCc1ccnc(C)n1` (stereo not drawn), the cytotoxicity at 70.5 h was found to be 26.5%.
The figure for `CN(c1ccc(C#N)cn1)C1CCCN(Cc2noc(C3CC3)n2)C1` (stereo not drawn) is -0.287%.
The figure for `CC(=O)NCC1CCN(C(=O)c2c[nH]c3cc(Cl)ccc23)CC1` is -10.5%; for `Cc1nn(C)c(Cl)c1S(=O)(=O)N(C)c1ccc(Cl)cn1` it is 0.786%; for `Cc1cc(N(C)C)nc(NCCn2cccn2)n1` it is -10%.
As to `Cc1cnn(CCNc2nc(C)cc(N(C)C)n2)c1`, the cytotoxicity at 70.5 h turned out to be 11.4%.
`CCCN1C(=O)C2(CCCCC2)NC1c1cn(C)c(=O)n(C)c1=O` (stereo not drawn): the cytotoxicity at 70.5 h is -6.69%.
For the compound `CCSc1cncc(N2CCC(C(=O)Nc3ccccn3)CC2)n1`, the cytotoxicity at 70.5 h is -3.08%.
For the compound `CCSc1cncc(N2CCC(C(=O)NC(C)C(C)C)CC2)n1` (stereo not drawn), the cytotoxicity at 70.5 h is -3.06%.
In the case of `CN(Cc1cccs1)C(=O)Cn1cc(NC(=O)C(C)(C)C)cn1`, the cytotoxicity at 70.5 h was -7.51%.
For `CN(CC(F)(F)F)C(=O)Cn1cc(NC(=O)C(C)(C)C)cn1` the value was 3.96%; for `COCCC(=O)Nc1cc(CC(C)(C)C)n[nH]1`, -6.88%; for `O=C(NCC(O)C1CC1)Nc1cnn(Cc2ccccc2)c1` (stereo not drawn), -7.29%.
The figure for `CC(C)C(O)CNC(=O)Nc1cnn(C(C)C)c1` (stereo not drawn) is -8.43%.
For the compound `Cc1cccn2cc(C[S+]([O-])Cc3noc(C(C)C)n3)nc12` (stereo not drawn), the cytotoxicity at 70.5 h was -1.76%.
`COc1ccc(F)c(NCc2ccc(C(=O)N(C)C)[nH]2)c1`: the cytotoxicity at 70.5 h was 15.8%.
Consider `Cc1ccc(CNC(=O)N2CCc3ccccc3C2CO)s1` (stereo not drawn), for which the cytotoxicity at 70.5 h was -5.32%.
With `Cc1ccc(F)c(NCc2ccc(C(=O)N(C)C)[nH]2)c1`, the cytotoxicity at 70.5 h is -3.46%.
For `CCCc1nc(CNc2ccc(F)c(F)c2)no1` the value was 14.6%; for `CC(=O)NCC1CCN(C(=O)c2c(C)[nH]c3ccc(Cl)cc23)CC1`, -0.185%; for `CCc1nc(CNc2ccc(F)c(F)c2)no1`, -7.5%.
For the compound `CC(C)N(CC1CCCN(Cc2ccon2)C1)C(=O)OC(C)(C)C` (stereo not drawn), the cytotoxicity at 70.5 h is -2.83%.
Take `N#CCSCCCN1CCC(C(=O)N2CCCCCC2)CC1`: the cytotoxicity at 70.5 h is -5.04%.
Turning to `COc1ccc(C)cc1CC(=O)NC(CC(=O)O)c1ccc(F)cc1` (stereo not drawn), the cytotoxicity at 70.5 h is -18.4%.
For `CNC(=O)C(C)NC(=O)c1ccc(Oc2cccnc2)cc1` (stereo not drawn) the value was -10.1%; for `O=C(O)CC(NC(=O)c1cc(Br)c[nH]1)c1ccccc1` (stereo not drawn), -7.36%; for `CC(C)c1noc(CS(=O)(=O)CC(=O)NCc2ccccc2)n1`, -9.16%.
Regarding `CC(C)CCOc1ccc(C(C)NC(=O)Cn2cccnc2=O)cc1` (stereo not drawn), the cytotoxicity at 70.5 h is -5.94%.
For the compound `COc1ccc(CCC(=O)Nc2ccncc2C)cc1`, the cytotoxicity at 70.5 h is -9.71%.
As to `Cc1nc(C2CCCN(C(=O)CN3CCCC3=O)C2)sc1C` (stereo not drawn), the cytotoxicity at 70.5 h is -15.5%.
As to `O=C(CN1CCCNC1=O)N1CCCC(c2nccs2)C1` (stereo not drawn), the cytotoxicity at 70.5 h is -8.65%.
In the case of `N#Cc1ccc(CNC(=O)NCCC(=O)NC2CCCC2)c(F)c1`, the cytotoxicity at 70.5 h is -2.28%.
`CNc1nc(CNC(=O)Nc2ccc(OC)cc2C)cs1`: the cytotoxicity at 70.5 h is -7.81%.
In the case of `Cc1cnc2c(c1)N(C(=O)c1ccc(=O)n(C)c1)CCO2`, the cytotoxicity at 70.5 h was -2.79%.
In the case of `O=C(NCCCc1ccc(O)cc1)C1(O)Cc2ccccc2C1`, the cytotoxicity at 70.5 h was -8.24%.
Turning to `CC(C)COC(C)C(=O)NCc1ccc(Cn2ccnc2)cc1` (stereo not drawn), the cytotoxicity at 70.5 h was -8.31%.
Turning to `CCS(=O)(=O)NCCCNC(=O)N(C)C(C)c1ccccn1` (stereo not drawn), the cytotoxicity at 70.5 h is -5.57%.
For `Cc1cccc(C)c1CCNC(=O)N1CCCC2(C1)OCCO2` the value was -5.85%; for `CC(C)COC(C)C(=O)NCc1ccccc1Cn1ccnc1` (stereo not drawn), -7%; for `CCC(C)(NCC(=O)Nc1nc(C)cs1)c1nc(C)cs1` (stereo not drawn), -0.105%.
